Laboratory results as given in US11434490B2, “Fluorogen-binding RNA aptamers” (CENTRE NATIONAL DE LA RECHERCHE SCIENTIFIQUE, priority 2017, dated 2022).

B1: Mango II - A22U: Mango-II point mutant; SEQ ID NO: 6903 / 6905 (nucleic acid)
chain 1: GCGUACGAAGGAGAGGAGAGGUAGAGGAGAGUACGC
chain 2: GGCACGUACGAAGGAGAGGAGAGGUAGAGGAGAGUACGUGC
modifications: chemistry not given here

What was measured:
[1] = Fluorescence enhancement of TO1-ME; type: biochemical; conditions: ligand TO1-ME
Method: (§1) The bandwidth for all measurements was 1.5 nm for all experiments. Measurements were performed in a 0.2 cm path length cuvette in a background of 20 mM MOPS pH 7.0, 150 mM KCl, 10 μM EDTA. Fluorescence readings were taken in the absence of RNA at a ligand concentration of 0.82 μM. A concentrated, annealed stock of RNA was then added to the cuvette resulting in a final concentration of 2 μM RNA and allowed to equilibrate for 1 minute prior to taking an emission reading. Fluorescence enhancement was determined by dividing the fluorescence signal of ligand in the presence of RNA by the fluorescence signal in the absence of RNA corrected for the background of the instrument.

[2] = Fluorescence titration, binding affinity for TO1-PA; conditions: ligand TO1-PA
Excerpt: (§2) We determined the affinity and fluorescence enhancement of four compounds: TO1-OAc (TO1-acetate), TO1-ME (TO1-methylester), TO1-PA (TO1-propanylamide), TO1-PE (TO1-pentenoylester) (FIG. 42, Table 8 & 9). Binding affinity and fluorescence enhancement of TO1-OAc is drastically diminished, and nearly identical between the wild-type and A22U mutant. […] Further extension of the linker stabilizes the binding pocket by stacking on T3 but becomes sterically hindered by a bulky purine in position 22. The A22U mutation would limit steric clashes while preventing misfolding of the G-quadruplex core. Thus, the improved properties of the Mango-II A22U mutant may arise from improved packing of the linker of the fluorophore with an RNA with a homogeneous or predominant conformation.
(§3) Fluorescence readings were recorded using a Varian Cary Eclipse Spectrophotometer set to measure at the maximum excitation and emission wavelengths of the Mango II aptamer dye complex. Fluorescence titrations were performed in Mango selection buffer (WB: 140 mM KCl, 1 mM MgCl2, 10 mM NaH2PO4 pH 7.2, 0.05% Tween-20).

[3] = Fluorescence enhancement of TO3-Biotin; type: biochemical; conditions: ligand TO3-B; 0.82 μM ligand, 2 μM RNA
Method: as §1

[4] = Fluorescence titration, binding affinity for TO1-ME; conditions: ligand TO1-ME
Excerpt: as §2, §3

[5] = Fluorescence enhancement of TO1-OAc; type: biochemical; conditions: ligand TO1-OAc
Method: as §1

[6] = Fluorescence titration, binding affinity for TO1-Biotin; conditions: for Kd: ligand TO1-B (TO1-Biotin)
Excerpt: FIG. 2|RNA Mango I, II, III and IV core sequences and their properties. (a) Color coded alignment of RNA Mango I, II, III and IV. G residues in yellow are protected from DMS cleavage (data from panel d) when folded in the presence of fluorophore. Quadruplex stacks and their associated propeller sequences are numbered 1 through 4. The GAAA isolation motif of Mango I, together with two adenines essential for binding, are shown in green and red respectively. Purple shading represents a flanking stem region common for all four Mango aptamers. Schematic: A tertiary structure schematic of Mango I, showing tier 1, 2 and 3 of its quadruplex structure (T1, T2 and T3) and color-coded as in (a). […] Bottom: Top view of the Mango I core (PBD ID: 5V3F), showing the T3 tier of the quadruplex and relevant propeller residues, color coding matches the schematic and panel a. […] KD values are shown next to each titration. (c) Same as for panel b but using 20 nM TO3-Biotin. Data for panels b and c have been normalized such that Mango I has a maximum fluorescence of 1. Error bars are standard deviation of three replicates. (d) DMS chemical protection patterns for the four Mango aptamers. 3′ end-labelled RNA (terminal ^32pCp shown as a black asterisk) was subjected to DMS chemical modification followed by reduction by NaBH4 and aniline cleavage as described in the methods. […] Legend: T1—denatured T1 ladder; OH—partial alkaline hydrolysis ladder; (−) DMS—denatured reaction with ddH2O added in place of DMS; 80° C.
Fluorescence data was gathered using a Varian Cary Eclipse Spectrophotometer unless otherwise stated. […] Fluorescence was measured at the maximum excitation and emission wavelengths of each complex (FIG. 13).
Where F([RNA]) is the fluorescence as a function of RNA concentration [RNA], Fmax is the maximal fluorescence of the bound complex and Funbound the fluorescence of the unbound fluorophore. When the fluorescence of Funbound was undetectable, it was set to zero.
as §3

[7] = Fluorescence enhancement of TO1-PE; type: biochemical; conditions: ligand TO1-PE
Method: as §1

[8] = Fluorescence titration, binding affinity for TO1-OAc; conditions: ligand TO1-OAc
Excerpt: as §2, §3

[9] = Fluorescence enhancement of TO1-Biotin; type: biochemical; conditions: ligand TO1-B; 0.82 μM ligand, 2 μM RNA
Method: as §1

| Molecule | FIE (fluorescence enhancement) [1] | Kd [2] | FIE (fluorescence enhancement) [3] | Kd [4] | FIE (fluorescence enhancement) [5] | TO1-Biotin binding affinity (in words) [6] | Kd [6] | FIE (fluorescence enhancement) [7] | Kd [8] | FIE (fluorescence enhancement) [9] |
| --- | --- | --- | --- | --- | --- | --- | --- | --- | --- | --- |
| Mango-II: minimal construct engineered from isolate R2-1; SEQ ID NO: 6902 GCGUACGAAGGAGAGGAGAGGAAGAGGAGAGUACGC (chemistry not given here) | 401 ± 6 | 1.04 ± 0.57 nM | 61 ± 2 | 2.41 ± 0.54 nM | 258 ± 10 | subnanomolar affinity | 1.1 ± 0.3 nM | 783 ± 13 | 56 ± 2 nM | 1303 ± 20 |
| B1 | 302 ± 6 | 2.21 ± 1.09 nM | 46 ± 3 | 4.81 ± 1.02 nM | 315 ± 4 |  | 0.9 ± 0.4 nM | 825 ± 14 | 43 ± 3 nM | 1543 ± 24 |
